According to patent US20100137275A1 (IPSEN PHARMA S.A.S., priority 2007, published 2010):
pIC50: −log10 of the molar value.

Legend:
[1] = target: T1, purified recombinant Cdc25-C enzyme (MBP-Cdc25C protein) (Homo sapiens, UniProt P30307); experiment: Phosphatase activity of the purified recombinant Cdc25C enzyme (OMFP dephosphorylation, fluorescence); assay type: biochemical; conditions: OMFP 500 μM, 4 hours at 30° C.
T1 construct: made in house
T1 sequence (P30307 1-473): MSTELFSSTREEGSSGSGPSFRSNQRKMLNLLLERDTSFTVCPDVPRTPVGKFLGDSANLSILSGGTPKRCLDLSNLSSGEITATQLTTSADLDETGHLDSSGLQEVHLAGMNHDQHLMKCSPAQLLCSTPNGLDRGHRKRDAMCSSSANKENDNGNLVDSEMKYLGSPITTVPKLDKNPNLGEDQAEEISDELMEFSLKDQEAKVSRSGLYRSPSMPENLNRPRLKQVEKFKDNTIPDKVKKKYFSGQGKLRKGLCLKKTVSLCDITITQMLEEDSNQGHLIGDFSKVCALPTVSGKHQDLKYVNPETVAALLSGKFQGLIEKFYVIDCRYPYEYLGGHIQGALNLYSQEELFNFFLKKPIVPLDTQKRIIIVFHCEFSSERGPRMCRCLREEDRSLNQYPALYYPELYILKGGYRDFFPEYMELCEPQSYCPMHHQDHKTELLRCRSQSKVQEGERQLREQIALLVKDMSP
Method in brief: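 MBP-Cdc25C fusion protein in 50 mM Tris-HCl pH 8.2, 50 mM NaCl, 1 mM DTT, 20% glycerol; reaction started with 500 μM OMFP (final). Compounds tested at decreasing concentrations from 40 μM; 4 h at 30 °C, OMF fluorescence read at 475 nm. IC50 from three independent experiments by linear regression over the linear part of the sigmoid.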

[2] = test system: Mia-PaCa2 (human pancreas cancer cells); experiment: Anti-proliferative activity on Mia-Paca2 cell line (WST1 colorimetric test); assay type: cell-based; conditions: MIA PaCa-2, 96 h, 96 hours treatment, read-out: IC50 on proliferation of the Mia-Paca2 cell line
Description: (§1) By way of an example, the effect of treating two human cell lines Mia-Paca2 and DU145 with the compounds of the examples described hereinbefore will be studied. The cell lines DU145 (human prostate cancer cells) and Mia-PaCa2 (human pancreas cancer cells) were obtained from the American Tissue Culture Collection (Rockville, Md., USA). A 96-well plate was inoculated on day 0 with cells placed in 80 μl of Dulbecco's modified Eagle's medium (Gibco-Brl, Cergy-Pontoise, France) with 10% heat-inactivated foetal calf serum (Gibco-Brl, Cergy-Pontoise, France), 50000 units/1 of penicillin and 50 mg/l of streptomycin (Gibco-Brl, Cergy-Pontoise, France), and 2 mM of glutamine (Gibco-Brl, Cergy-Pontoise, France). The cells were treated on day 1 with increasing concentrations of each test compound up to 10 μM for 96 hours. At the end of this period, cell proliferation is quantified by means of a colorimetric test based on cleavage of the tetrazolium salt WST1 by the mitochondrial dehydrogenases in the viable cells, resulting in formation of formazan (Boehringer Mannheim, Meylan, France). These tests are performed in duplicate with 8 determinations per concentration tested. For each compound to be tested, the values within the linear part of the sigmoid curve were subjected to linear regression analysis and used to estimate the IC50 inhibitory concentration. The products are solubilised in dimethylsulfoxide (DMSO) at a concentration of 10^−2 M and used in culture with a final DMSO concentration of 0.1%.

[3] = test system: DU145 (human prostate cancer cells); experiment: Anti-proliferative activity on DU-145 cell line (WST1 colorimetric test); assay type: cell-based; conditions: DU-145, 96 h, 96 hours treatment, read-out: IC50 on the proliferation of the DU-145 cell line
Description: as §1

Row | pIC50 [1] | melting point | pIC50 [2] | pIC50 [3] | Structure (SMILES)
1 | ≥ 6.00 | 146 to 148 °C | ≥ 5.30 | ≥ 5.30 | CN(CCNC(=S)Nc1ccc(S(=O)(=O)Nc2ccccc2)cc1)CCNc1cc(N2CCCC2)nc(N2CCCC2)n1 [Example 62, 4-{[({2-[{2-[(2,6-dipyrrolidin-1-ylpyrimidin-4-yl)amino]ethyl}(methyl)amino]ethyl}amino)carbonothioyl]amino}-N-phenylbenzenesulfonamide]
2 | – | 146 to 148 °C | ≥ 5.30 | ≥ 5.30 | CN(CCNC(=S)Nc1ccc(Cl)cc1)CCNc1cc(N2CCC2)nc(N2CCC2)n1 [Example 75, N-(4-chlorophenyl)-N′-{2-[{2-[(2,6-diazetidin-1-ylpyrimidin-4-yl)amino]ethyl}(methyl)amino]ethyl}thiourea]
3 | ≥ 5.30 | 127 to 129 °C | ≥ 5.30 | ≥ 5.30 | CN(CCNC(=S)Nc1ccc(Cl)cc1)CCNc1cc(N(C)C)nc(N(C)C)n1 [Example 73, N-{2-[(2-{[2,6-bis(dimethylamino)pyrimidin-4-yl]amino}ethyl)(methyl)amino]ethyl}-N′-(4-chlorophenyl)thiourea]
4 | ≥ 5.30 | 203 to 205 °C | ≥ 5.30 | ≥ 5.30 | CN(CCNc1cc(N2CCCC2)nc(N2CCCC2)n1)CCNS(=O)(=O)c1cccc(C(F)(F)F)c1 [Example 88, N-{2-[{2-[(2,6-dipyrrolidin-1-ylpyrimidin-4-yl)amino]ethyl}(methyl)amino]ethyl}-3-(trifluoromethyl)benzenesulfonamide]
5 | ≥ 5.30 | 140 to 142 °C | ≥ 5.30 | ≥ 5.30 | CN(CCNc1cc(N2CCCC2)nc(N2CCCC2)n1)CCNS(=O)(=O)c1ccc(C(F)(F)F)cc1 [Example 89, N-{2-[{2-[(2,6-dipyrrolidin-1-ylpyrimidin-4-yl)amino]ethyl}(methyl)amino]ethyl}-4-(trifluoromethyl)benzenesulfonamide]
6 | – | 127 to 129 °C | ≥ 5.30 | ≥ 5.30 | CN(CCNC(=S)Nc1ccc(N(C)C)cc1)CCNc1cc(N2CCCC2)nc(N2CCCC2)n1 [Example 76, N-[4-(dimethylamino)phenyl]-N′-{2-[{2-[(2,6-dipyrrolidin-1-ylpyrimidin-4-yl)amino]ethyl}(methyl)amino]ethyl}thiourea]

The next lines start with the molecule.

Row | Structure (SMILES) | pIC50 [1] | melting point | pIC50 [2] | pIC50 [3]
7 | CN(CCNC(=O)Nc1ccc(Cl)c(Cl)c1)CCNc1cc(N2CCCC2)nc(N2CCCC2)n1 [Example 17, N-(3,4-dichlorophenyl)-N′-{2-[{2-[(2,6-dipyrrolidin-1-ylpyrimidin-4-yl)amino]ethyl}(methyl)amino]ethyl}urea] | ≥ 6.00 | 138 to 139 °C | ≥ 5.30 | ≥ 5.30
8 | CN(CCNC(=S)Nc1ccc(Cl)nc1)CCNc1cc(N2CCCC2)nc(N2CCCC2)n1 [Example 53, N-(6-chloropyridin-3-yl)-N′-{2-[{2-[(2,6-dipyrrolidin-1-ylpyrimidin-4-yl)amino]ethyl}(methyl)amino]ethyl}thiourea] | ≥ 6.00 | 96 to 98 °C | ≥ 5.30 | ≥ 5.30
9 | CN(CCNC(=S)NCc1ccc(F)cc1)CCNc1cc(N2CCCC2)nc(N2CCCC2)n1 [Example 46, N-{2-[{2-[(2,6-dipyrrolidin-1-ylpyrimidin-4-yl)amino]ethyl}(methyl)amino]ethyl}-N′-(4-fluorobenzyl)thiourea] | ≥ 6.00 | 64 to 66 °C | ≥ 5.30 | ≥ 5.30
10 | O=C(NCCCCCNc1cc(N2CCCC2)nc(N2CCCC2)n1)Nc1ccc(Cl)cc1 [Example 19, N-(4-chlorophenyl)-N′-{5-[(2,6-dipyrrolidin-1-ylpyrimidin-4-yl)amino]pentyl}urea] | ≥ 6.00 | 192 to 193 °C | ≥ 5.30 | ≥ 5.30
11 | CN(CCNC(=O)Nc1ccc(Cl)cc1)CCNc1cc(N2CCCC2)nc(N2CCCC2)n1 [Example 16, N-(4-chlorophenyl)-N′-{2-[{2-[(2,6-dipyrrolidin-1-ylpyrimidin-4-yl)amino]ethyl}(methyl)amino]ethyl}urea] | ≥ 6.00 | 71 to 73 °C | ≥ 5.30 | ≥ 5.30
12 | CN(CCNC(=O)Nc1cccc2nsnc12)CCNc1cc(N2CCCC2)nc(N2CCCC2)n1 [Example 15, N-2,1,3-benzothiadiazol-4-yl-N′-{2-[{2-[(2,6-dipyrrolidin-1-ylpyrimidin-4-yl)amino]ethyl}(methyl)amino]ethyl}urea] | ≥ 6.00 | 126 to 128 °C | ≥ 5.30 | ≥ 5.30
13 | CN(CCNC(=S)Nc1ccc(S(=O)(=O)N2CCCCC2)cc1)CCNc1cc(N2CCCC2)nc(N2CCCC2)n1 [Example 27, N-{2-[{2-[(2,6-dipyrrolidin-1-ylpyrimidin-4-yl)amino]ethyl}(methyl)amino]ethyl}-N′-[4-(piperidin-1-ylsulfonyl)phenyl]thiourea] | ≥ 5.30 | 120 to 122 °C | ≥ 5.30 | ≥ 5.30
14 | COc1cc(NC(=S)NCCN(C)CCNc2cc(N3CCCC3)nc(N3CCCC3)n2)cc(OC)c1OC [Example 38, N-{2-[{2-[(2,6-dipyrrolidin-1-ylpyrimidin-4-yl)amino]ethyl}(methyl)amino]ethyl}-N′-(3,4,5-trimethoxyphenyl)thiourea] | ≥ 6.00 | 109 to 111 °C | ≥ 5.30 | ≥ 5.30
15 | CN(CCNC(=S)Nc1ccc(S(=O)(=O)c2ccc(Br)cc2)cc1)CCNc1cc(N2CCCC2)nc(N2CCCC2)n1 [Example 60, N-{4-[(4-bromophenyl)sulfonyl]phenyl}-N′-{2-[{2-[(2,6-dipyrrolidin-1-ylpyrimidin-4-yl)amino]ethyl}(methyl)amino]ethyl}thiourea] | ≥ 6.00 | 118 to 120 °C | ≥ 5.30 | ≥ 5.30
16 | CN(CCNC(=S)Nc1ccccc1F)CCNc1cc(N2CCCC2)nc(N2CCCC2)n1 [Example 42, N-{2-[{2-[(2,6-dipyrrolidin-1-ylpyrimidin-4-yl)amino]ethyl}(methyl)amino]ethyl}-N′-(2-fluorophenyl)thiourea] | ≥ 5.30 | 105 to 107 °C | ≥ 5.30 | ≥ 5.30
17 | CN(CCNC(=S)Nc1ccc(-n2cccn2)cc1)CCNc1cc(N2CCCC2)nc(N2CCCC2)n1 [Example 48, N-{2-[{2-[(2,6-dipyrrolidin-1-ylpyrimidin-4-yl)amino]ethyl}(methyl)amino]ethyl}-N′-[4-(1H-pyrazol-1-yl)phenyl]thiourea] | ≥ 5.30 | 116 to 118 °C | ≥ 5.30 | ≥ 5.30
18 | CN(CCNC(=S)Nc1cccnc1Oc1ccc(F)cc1F)CCNc1cc(N2CCCC2)nc(N2CCCC2)n1 [Example 47, N-[2-(2,4-difluorophenoxy)pyridin-3-yl]-N′-{2-[{2-[(2,6-dipyrrolidin-1-ylpyrimidin-4-yl)amino]ethyl}(methyl)amino]ethyl}thiourea] | ≥ 6.00 | 108 to 110 °C | ≥ 5.30 | ≥ 5.30
